Test results published in US10590393B2, “Retinoic acid enhanced human stem cell derived blood brain barrier model” (Wisconsin Alumni Research Foundation, priority 2012, dated 2020).
Like-named read-outs stand apart in the source and are kept apart here.

Columns and labels:
iPSC-derived BMECs = assay: Test of compounds for the ability to mimic the activity of RA (elevated TEER); assay type: cell-based, human; details: for induction of elevated TEER: ability to mimic the activity of RA
Excerpt: Further, Applicants tested a list of compounds for the ability to mimic the activity of RA.
A typical retinoic acid-enhanced blood brain barrier is created as described below and in the figures. Retinoic acid suitable for the present invention may be obtained from commercial sources such as Sigma-Aldrich. […] Both types of RA are suitable for the present invention.

in vitro = details: human, permeability
Experimental: (§1) To determine Pe values for radiolabeled compounds, each compound was diluted to 0.4 μCi in transport buffer (distilled water with 0.12 M NaCl, 25 mM NaHCO3, 3 mM KCl, 2 mM MgSO4, 2 mM CaCl2, 0.4 mM K2HPO4, 1 mM HEPES, and 0.1% bovine serum albumin [BSA; Sigma]). 200 μL aliquots were extracted from the basolateral chamber every 15 min and replaced by fresh transport buffer. […] [^3H]-vincristine was purchased from American Radiolabeled Chemicals (St. Louis, Mo., USA), while all other radiolabeled compounds were acquired from PerkinElmer (Waltham, Mass., USA). All compound incubations were conducted at 37° C. and carried out on a rotator. Triplicate filters were used for all permeability studies.

IMR90-4-derived BMECs = assay: in vitro; details: for permeability: human, 1 h
Experimental: as §1

[1] = tested on: hCMEC/D3 immortalized human BMEC line; details: cited from earlier work
[2] = RA treatment and optimized neural cell co-culture

Molecule	induction of elevated TEER (iPSC-derived BMECs)	also measured
O=C(O)CCc1cc(I)c(O)c(I)c1 [3,5-diiodo-4-hydroxyphenylpropionic acid]	not to induce elevated TEER	
N[C@@H](Cc1cc(I)c(Oc2ccc(O)cc2)c(I)c1)C(=O)O [3,5-diiodo-L-thyronine]	not to induce elevated TEER	
CCCCCC#CCC#CCC#CCC#CCCCC(=O)O [5,8,11,14-eicosatetraynoic acid]	not to induce elevated TEER	
O=Cc1c2[nH]c3ccccc3c2cc2[nH]c3ccccc3c12 [6-formylindolo[3,2-B]carbazole]	not to induce elevated TEER	
CC1=C(/C=C/C(C)=C\C=C\C(C)=C\C(=O)O)C(C)(C)CCC1 [9-cis RA]		enhancement by RA isoform (iPSC-derived BMECs; two isoforms of RA tested): producing the desired enhancement
C=C1CC[C@H](O)C/C1=C/C=C1\CCC[C@]2(C)[C@@H]([C@H](C)CCCC(C)(C)O)CC[C@@H]12 [25-hydroxyvitamin D3]	not to induce elevated TEER	
CC1(C)CC=C(c2ccccc2)c2cc(/C=C/c3ccc(C(=O)O)cc3)ccc21 [BMS 453]	not to induce elevated TEER	
CC1(C)C(=O)C(C)(C)c2cc(C(=O)Nc3ccc(C(=O)O)cc3)ccc21 [BMS 753]	induce elevated TEER	
Clc1ccc(-c2nc3sccn3c2/C=N/OCc2ccc(Cl)c(Cl)c2)cc1 [CITCO]	not to induce elevated TEER	
COc1cc2c(c(OC)c1OC)-c1ccc(OC)c(=O)cc1[C@@H](NC(C)=O)CC2 [Colchicine, colchicine]		Papp A→B at 1 h (in vitro; RA-treated cells without co-culture): 0.383 ×10⁻⁶ cm/s; Papp A→B at 1 h (in vitro; optimized co-culture conditions (pericyte/hNPC), RA-treated): 0.25 ×10⁻⁶ cm/s; Average Pe (IMR90-4-derived BMECs; [2]): 0.015 ± 0.007 10^−3 cm/min; Average Pe (IMR90-4-derived BMECs; RA treatment only): 0.023 ± 0.0096 10^−3 cm/min; permeability ([1]; hCMEC/D3, colchicine and vincristine estimated from graphical data): approximately 1.6×10^−3 cm/min
COc1cc2nc(N3CCN(C(=O)c4ccco4)CC3)nc(N)c2cc1OC [Prazosin, prazosin]		Papp A→B at 1 h (in vitro): 1.83 ×10⁻⁶ cm/s; Average Pe (IMR90-4-derived BMECs; [2]): 0.11 ± 0.006 10^−3 cm/min; Average Pe (IMR90-4-derived BMECs; RA treatment only): 0.2 ± 0.05 10^−3 cm/min; permeability (IMR90-4-derived BMECs): 2±0.5×10^−4 cm/min
CC[C@]1(O)C[C@H]2CN(CCc3c([nH]c4ccccc34)[C@@](C(=O)OC)(c3cc4c(cc3OC)N(C=O)[C@H]3[C@@](O)(C(=O)OC)[C@H](OC(C)=O)[C@]5(CC)C=CCN6CC[C@]43[C@@H]65)C2)C1 [Vincristine, vincristine]		Papp A→B at 1 h (in vitro): 0.433 ×10⁻⁶ cm/s; permeability (IMR90-4-derived BMECs): 3.5±0.9×10^−5 cm/min; permeability [1]: approximately 0.75×10^−3 cm/min
Cc1cccc(Nc2cc(Cl)nc(SCC(=O)O)n2)c1C [WY-14643]	not to induce elevated TEER	
CCCCC[C@H](O)/C=C/[C@@H]1[C@H]2C/C(=C/CCCC(=O)O)C[C@H]2C[C@H]1O [carbacyclin]	induce elevated TEER	
C[C@H](CCC(=O)O)[C@H]1CC[C@H]2[C@@H]3[C@H](O)C[C@@H]4C[C@H](O)CC[C@]4(C)[C@H]3C[C@H](O)[C@]12C [cholic acid]	not to induce elevated TEER	
CC/C=C\C/C=C\C/C=C\C/C=C\C/C=C\C/C=C\CCC(=O)O [docosa-4Z,7Z,10Z,13Z,16Z,19Z-hexaenoic acid]	not to induce elevated TEER	
CC(=O)[C@H]1[C@H](C#N)C[C@H]2[C@@H]3CC=C4C[C@@H](O)CC[C@]4(C)[C@H]3CC[C@@]21C [pregnenolone-16α-carbonitrile]	not to induce elevated TEER	
CD 3254	induce elevated TEER	
